In ChEMBL document CHEMBL3091402, “Identification of clinical candidates from the benzazepine class of histamine H3 receptor antagonists” (Bioorg Med Chem Lett, 2013):
One block for each molecule: values may come before it. The source made the active and inactive calls. The calls are words filed in the database; no cut-off is given here.

Legend:
Histamine H3 receptor [1] = target: T1, Histamine H3 receptor (Homo sapiens, UniProt Q9Y5N1); assay: Antagonist activity at human histamine H3 receptor expressed in CHOK1 cells assessed as inhibition of GTPgammaS binding; assay type: functional, cell-based, CHO-K1
T1 sequence (Q9Y5N1 whole entry): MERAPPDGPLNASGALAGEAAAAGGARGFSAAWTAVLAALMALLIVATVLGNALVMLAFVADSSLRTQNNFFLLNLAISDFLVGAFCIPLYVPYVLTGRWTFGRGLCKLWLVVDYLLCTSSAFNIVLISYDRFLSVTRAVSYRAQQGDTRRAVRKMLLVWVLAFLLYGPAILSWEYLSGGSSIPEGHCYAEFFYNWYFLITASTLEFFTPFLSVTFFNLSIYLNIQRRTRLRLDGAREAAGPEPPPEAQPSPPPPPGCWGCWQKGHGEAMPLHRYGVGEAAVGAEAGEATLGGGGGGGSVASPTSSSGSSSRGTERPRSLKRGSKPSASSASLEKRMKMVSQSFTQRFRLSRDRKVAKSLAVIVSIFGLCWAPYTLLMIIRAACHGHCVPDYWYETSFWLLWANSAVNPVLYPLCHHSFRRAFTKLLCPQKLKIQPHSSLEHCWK

Rattus norvegicus [2] = assay: Ex vivo binding affinity to histamine H3 receptor in rat cerebral cortex using [3H]-R-alpha-ethylhistamine at 0.3 mg/kg, po after 3 hrs by HPLC analysis; assay type: functional
Histamine H3 receptor [3] = target: T2, Histamine H3 receptor (Rattus norvegicus, UniProt Q9QYN8); assay: Displacement of [3H]-R-alpha-ethylhistamine from histamine H3 receptor in rat cerebral cortical tissue membranes after 45 mins by liquid scintillation spectrometry
T2 sequence (Q9QYN8 whole entry): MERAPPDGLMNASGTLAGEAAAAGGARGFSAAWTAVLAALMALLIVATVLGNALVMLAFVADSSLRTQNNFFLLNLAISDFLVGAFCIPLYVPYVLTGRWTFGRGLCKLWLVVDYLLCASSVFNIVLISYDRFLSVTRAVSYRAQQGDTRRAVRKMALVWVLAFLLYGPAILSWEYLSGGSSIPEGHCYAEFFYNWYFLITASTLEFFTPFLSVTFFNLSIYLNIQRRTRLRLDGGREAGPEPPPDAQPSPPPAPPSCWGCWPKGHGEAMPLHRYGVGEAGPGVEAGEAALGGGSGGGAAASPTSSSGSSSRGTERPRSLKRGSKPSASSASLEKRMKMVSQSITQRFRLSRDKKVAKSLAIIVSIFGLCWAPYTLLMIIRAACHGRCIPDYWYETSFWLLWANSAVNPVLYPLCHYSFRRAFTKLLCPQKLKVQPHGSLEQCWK

Liver microsome [4] = assay: Intrinsic clearance in human liver microsomes; assay type: ADME
[5] = Time dependent inhibition of CYP450 (unknown origin); assay type: ADME, Homo sapiens
hERG (KCNH2) = hERG (KCNH2) (Homo sapiens, UniProt Q12809); assay: Inhibition of human ERG at 10 uM by patch clamp experiment
Sequence of hERG (KCNH2) (Q12809 whole entry): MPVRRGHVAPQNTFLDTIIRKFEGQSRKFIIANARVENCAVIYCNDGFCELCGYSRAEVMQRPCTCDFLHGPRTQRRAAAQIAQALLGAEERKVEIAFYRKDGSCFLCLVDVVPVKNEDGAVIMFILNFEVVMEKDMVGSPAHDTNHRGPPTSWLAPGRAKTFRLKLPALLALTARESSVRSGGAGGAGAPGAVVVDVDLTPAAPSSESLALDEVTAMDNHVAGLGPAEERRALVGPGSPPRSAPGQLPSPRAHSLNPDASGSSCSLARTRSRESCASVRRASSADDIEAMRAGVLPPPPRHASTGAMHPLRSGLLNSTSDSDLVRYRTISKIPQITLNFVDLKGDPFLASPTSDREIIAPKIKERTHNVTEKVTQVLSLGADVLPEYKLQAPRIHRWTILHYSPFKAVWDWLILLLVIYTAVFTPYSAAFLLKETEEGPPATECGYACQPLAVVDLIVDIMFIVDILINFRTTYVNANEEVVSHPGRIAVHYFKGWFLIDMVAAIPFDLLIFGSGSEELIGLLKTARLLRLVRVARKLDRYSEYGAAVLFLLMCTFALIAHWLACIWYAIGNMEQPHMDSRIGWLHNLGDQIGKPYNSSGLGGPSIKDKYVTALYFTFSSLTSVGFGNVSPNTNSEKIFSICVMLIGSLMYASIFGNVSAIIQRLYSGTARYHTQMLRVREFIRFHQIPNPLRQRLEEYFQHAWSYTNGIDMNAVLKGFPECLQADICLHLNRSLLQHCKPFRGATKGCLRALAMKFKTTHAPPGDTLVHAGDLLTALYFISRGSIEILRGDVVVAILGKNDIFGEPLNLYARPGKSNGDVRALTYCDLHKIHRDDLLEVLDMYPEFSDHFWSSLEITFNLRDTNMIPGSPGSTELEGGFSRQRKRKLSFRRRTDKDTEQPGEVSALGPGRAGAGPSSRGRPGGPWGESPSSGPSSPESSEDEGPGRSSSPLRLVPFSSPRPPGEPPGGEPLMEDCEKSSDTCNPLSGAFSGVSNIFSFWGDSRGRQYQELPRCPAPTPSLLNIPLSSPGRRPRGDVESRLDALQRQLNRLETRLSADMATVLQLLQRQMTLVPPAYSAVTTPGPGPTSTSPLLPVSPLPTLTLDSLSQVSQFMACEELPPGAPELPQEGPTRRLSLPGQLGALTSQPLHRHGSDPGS

[6] = Aqueous solubility of the compound; assay type: physicochemical
Histamine H4 receptor = Histamine H4 receptor (Homo sapiens, UniProt Q9H3N8); assay: Binding affinity to human histamine H4 receptor
Histamine H1 receptor = Histamine H1 receptor (Homo sapiens, UniProt P35367); assay: Binding affinity to human histamine H1 receptor
Sequence of Histamine H1 receptor (P35367 whole entry): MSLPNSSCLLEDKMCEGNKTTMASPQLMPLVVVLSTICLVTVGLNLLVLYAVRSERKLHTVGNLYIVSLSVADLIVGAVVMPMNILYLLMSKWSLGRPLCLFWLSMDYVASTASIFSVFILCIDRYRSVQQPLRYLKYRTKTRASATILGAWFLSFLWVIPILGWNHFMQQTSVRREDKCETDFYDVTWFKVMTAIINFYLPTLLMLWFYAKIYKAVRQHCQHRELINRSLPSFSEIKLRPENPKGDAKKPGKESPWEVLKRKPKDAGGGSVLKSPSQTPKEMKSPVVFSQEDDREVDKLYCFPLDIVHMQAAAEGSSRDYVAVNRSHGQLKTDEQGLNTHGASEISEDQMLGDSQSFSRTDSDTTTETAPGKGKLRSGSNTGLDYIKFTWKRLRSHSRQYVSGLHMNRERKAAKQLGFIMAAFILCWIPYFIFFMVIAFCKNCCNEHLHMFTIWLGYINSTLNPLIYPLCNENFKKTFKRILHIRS

Histamine H2 receptor = Histamine H2 receptor (Homo sapiens, UniProt P25021); assay: Binding affinity to human histamine H2 receptor
Sequence of Histamine H2 receptor (P25021 whole entry): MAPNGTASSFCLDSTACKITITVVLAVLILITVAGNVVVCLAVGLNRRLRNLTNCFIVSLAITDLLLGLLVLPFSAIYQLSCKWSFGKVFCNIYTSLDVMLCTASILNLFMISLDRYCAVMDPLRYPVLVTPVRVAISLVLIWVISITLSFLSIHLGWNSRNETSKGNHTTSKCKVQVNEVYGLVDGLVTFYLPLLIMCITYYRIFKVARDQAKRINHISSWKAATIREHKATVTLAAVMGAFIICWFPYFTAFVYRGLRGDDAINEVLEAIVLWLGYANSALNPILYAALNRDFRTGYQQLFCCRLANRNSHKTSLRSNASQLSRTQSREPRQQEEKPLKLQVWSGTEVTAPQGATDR

Histamine H3 receptor [7] = target: T2, Histamine H3 receptor; assay: Displacement of [3H]-R-alpha-ethylhistamine from rat histamine H3 receptor expressed in HEK293 cells after 45 mins by liquid scintillation spectrometry; assay type: cell-based
Liver microsome [8] = assay: Intrinsic clearance in rat liver microsomes; assay type: ADME
Rattus norvegicus [9] = assay: Reversal of RAMH-induced dipsogenia in po dosed Lister Hooded rat treated 2 hrs before RAMH challenge measured after 1 hr; assay type: functional
Rattus norvegicus [10] = assay: Reversal of RAMH-induced dipsogenia in Lister Hooded rat at 3 mg/kg, po treated 2 hrs before RAMH challenge measured after 1 hr; assay type: functional
Blood = assay: Drug level in rat blood at 3 mg/kg, po; assay type: ADME, organism-based; set-up: dose 3 mg/kg, route oral; details: in vivo, read-out: Drug uptake
[11] = Ratio of drug level in brain to blood in rat at 3 mg/kg, po after 1 hr; assay type: ADME, organism-based; set-up: dose 3 mg/kg, route oral
Rattus norvegicus [12] = assay: Ex vivo binding affinity to histamine H3 receptor in rat cerebral cortex using [3H]-R-alpha-ethylhistamine at 3 mg/kg, po after 3 hrs by HPLC analysis; assay type: functional
Rattus norvegicus [13] = assay: Ex vivo binding affinity to histamine H3 receptor in po dosed rat cerebral cortex using [3H]-R-alpha-ethylhistamine after 2 hrs by HPLC analysis; assay type: functional
[14] = Ratio of drug level in brain to blood in rat at 3 mg/kg, po; assay type: ADME, organism-based; set-up: dose 3 mg/kg, route oral
Rattus norvegicus [15] = assay: Cognitive enhancing effect in Lister Hooded rat assessed as increase of time spent exploring novel versus familiar objects in T2 at 0.3 to 1 mg/kg, po bid; assay type: functional, organism-based
Rattus norvegicus [16] = assay: Cognitive enhancing effect against scopolamine-induced memory deficit in Wistar rat assessed as passive avoidance response at 3 mg/kg, po after 24 hrs; assay type: functional, organism-based; set-up: dose 3 mg/kg
Rattus norvegicus [17] = assay: Cognitive enhancing effect against scopolamine-induced memory deficit in po dosed Wistar rat assessed as passive avoidance response after 24 hrs; assay type: functional, organism-based
[18] = Oral bioavailability in cynomolgus monkey; assay type: ADME, organism-based, Macaca fascicularis; details: in vivo
[19] = Terminal half life in po dosed cynomolgus monkey; assay type: ADME, organism-based, Macaca fascicularis; details: in vivo, read-out: beta t1/2 (converted)
[20] = Tmax in po dosed cynomolgus monkey; assay type: ADME, organism-based, Macaca fascicularis; details: in vivo
Rattus norvegicus [21] = species on record: Rattus norvegicus; assay: Ex vivo receptor occupancy of histamine H3 receptor in rat brain; assay type: functional, organism-based
[22] = Cmax in po dosed cynomolgus monkey; assay type: ADME, organism-based, Macaca fascicularis; set-up: route oral; details: in vivo
[23] = Terminal half life in iv dosed cynomolgus monkey; assay type: ADME, organism-based, Macaca fascicularis; details: in vivo, read-out: beta t1/2 (converted)
[24] = Cmax in iv dosed cynomolgus monkey; assay type: ADME, organism-based, Macaca fascicularis; set-up: route intravenous; details: in vivo
[25] = Volume of distribution at steady-state in iv dosed cynomolgus monkey; assay type: ADME, organism-based, Macaca fascicularis; details: in vivo, read-out: Vdss
[26] = Total blood clearance in iv dosed cynomolgus monkey; assay type: ADME, organism-based, Macaca fascicularis; details: whole blood
[27] = Oral bioavailability in Beagle dog; assay type: ADME, organism-based, Canis lupus familiaris; details: in vivo
[28] = Terminal half life in po dosed Beagle dog; assay type: ADME, organism-based, Canis lupus familiaris; details: in vivo, read-out: beta t1/2 (converted)
[29] = Tmax in po dosed Beagle dog; assay type: ADME, organism-based, Canis lupus familiaris; details: in vivo
[30] = Ratio of drug level in brain to blood in human; assay type: ADME, tissue-based
[31] = Cmax in po dosed Beagle dog; assay type: ADME, organism-based, Canis lupus familiaris; set-up: route oral; details: in vivo
[32] = Cmax in iv dosed Beagle dog; assay type: ADME, organism-based, Canis lupus familiaris; set-up: route intravenous; details: in vivo
[33] = Terminal half life in iv dosed Beagle dog; assay type: ADME, organism-based, Canis lupus familiaris; details: in vivo, read-out: beta t1/2 (converted)
[34] = Volume of distribution at steady-state in iv dosed Beagle dog; assay type: ADME, organism-based, Canis lupus familiaris; details: in vivo, read-out: Vdss
[35] = Total blood clearance in iv dosed Beagle dog; assay type: ADME, organism-based, Canis lupus familiaris; details: whole blood
[36] = Oral bioavailability in Sprague-Dawley rat; assay type: ADME, organism-based; details: in vivo
[37] = Tmax in po dosed Sprague-Dawley rat; assay type: ADME, organism-based; details: in vivo
[38] = Terminal half life in po dosed Sprague-Dawley rat; assay type: ADME, organism-based; details: in vivo, read-out: beta t1/2 (converted)
[39] = Cmax in po dosed Sprague-Dawley rat; assay type: ADME, organism-based; set-up: route oral; details: in vivo
[40] = Ratio of drug level in brain to blood in iv dosed Sprague-Dawley rat; assay type: ADME, organism-based
[41] = Terminal half life in iv dosed Sprague-Dawley rat; assay type: ADME, organism-based; details: in vivo, read-out: beta t1/2 (converted)
[42] = Cmax in iv dosed Sprague-Dawley rat; assay type: ADME, organism-based; set-up: route intravenous; details: in vivo
[43] = Volume of distribution at steady-state in iv dosed Sprague-Dawley rat; assay type: ADME, organism-based; details: in vivo, read-out: Vdss
[44] = Total blood clearance in iv dosed Sprague-Dawley rat; assay type: ADME, organism-based; details: whole blood
Histamine H3 receptor [45] = target: T1, Histamine H3 receptor; assay: Displacement of [3H]-R-alpha-ethylhistamine from human histamine H3 receptor expressed in HEK293 cells after 45 mins by liquid scintillation spectrometry
Histamine H3 receptor [46] = target: T1, Histamine H3 receptor; assay: Displacement of [3H]-R-alpha-ethylhistamine from histamine H3 receptor in human cerebral cortical tissue membranes after 45 mins by liquid scintillation spectrometry

Structure (SMILES): c1ccc(Oc2ccc3c(c2)CCN(C2CCC2)CC3)cc1
Ki (Histamine H3 receptor [1]): 3.16 nM

Structure (SMILES): O=C1CCCN1c1ccc(Oc2ccc3c(c2)CCN(C2CCCC2)CC3)nc1
ED50 (Rattus norvegicus [9]): 0.04 mg/kg
Kp [14]: 1
concentration (Blood): 550 nM
Activity (Rattus norvegicus [12]): 88%
ED50 (Rattus norvegicus [13]): 0.1 mg/kg
Ki (Histamine H3 receptor [3]): 0.794 nM
Ki (Histamine H3 receptor [1]): 0.126 nM

Structure (SMILES): c1cnc(Oc2ccc3c(c2)CCN(C2CCC2)CC3)nc1
Ki (Histamine H3 receptor [1]): 2.51 nM

Structure (SMILES): CCNC(=O)c1ccc(Oc2ccc3c(c2)CCN(C2CCC2)CC3)cn1
Activity (Rattus norvegicus [12]): 62%
Ki (Histamine H3 receptor [3]): 3.98 nM
Ki (Histamine H3 receptor [1]): 0.631 nM

Structure (SMILES): CC1CCC(=O)N1c1ccc(Oc2ccc3c(c2)CCN(C2CCC2)CC3)nc1 (stereo unspecified)
Activity (Rattus norvegicus [12]): 52%
Ki (Histamine H3 receptor [3]): 2.51 nM
Ki (Histamine H3 receptor [1]): 0.316 nM

Structure (SMILES): c1cc(-c2ccc(Oc3ccc4c(c3)CCN(C3CCC3)CC4)nc2)[nH]n1
Activity (Rattus norvegicus [2]): 23%
Ki (Histamine H3 receptor [3]): 2.51 nM
Ki (Histamine H3 receptor [1]): 0.251 nM

Structure (SMILES): O=C1CCCCN1c1ccc(Oc2ccc3c(c2)CCN(C2CCC2)CC3)nc1
Activity (Rattus norvegicus [12]): 10%
Ki (Histamine H3 receptor [3]): 2.51 nM
Ki (Histamine H3 receptor [1]): 0.316 nM

Further lines, with some results ahead:

Ki (Histamine H3 receptor [1]): 0.794 nM
Structure (SMILES): c1ccc(Oc2ccc3c(c2)CCN(C2CCC2)CC3)nc1

Ki (Histamine H3 receptor [3]): 0.2 nM
Ki (Histamine H3 receptor [1]): 0.0794 nM
Structure (SMILES): O=C1CCN1c1ccc(Oc2ccc3c(c2)CCN(C2CCC2)CC3)nc1
Activity (Rattus norvegicus [2]): 21%

CLH (Liver microsome [4]): 0.5 mL/min/g
IC50 [5]: > 10000 nM
solubility [6]: > 10000 µg/mL
Ki (Histamine H4 receptor): > 3160 nM
Ki (Histamine H1 receptor): > 2510 nM
Ki (Histamine H2 receptor): > 3160 nM
Ki (Histamine H3 receptor [7]): 0.676 nM
CLH (Liver microsome [8]): 0.5 mL/min/g
concentration (Blood): 880 nM
Kp at 1 h [11]: 1.3
Ki (Histamine H3 receptor [3]): 2.63 nM
Ki (Histamine H3 receptor [1]): 0.2 nM
Structure (SMILES): CNC(=O)c1ccc(Oc2ccc3c(c2)CCN(C2CCC2)CC3)nc1 [GSK189254]
inhibition at 10 µM (hERG (KCNH2)): 36%
ED50 (Rattus norvegicus [9]): 0.05 mg/kg
Activity (Rattus norvegicus [10]): 100%
Activity (Rattus norvegicus [12]): 100%
ED50 (Rattus norvegicus [13]): 0.17 mg/kg

Ki (Histamine H3 receptor [1]): 1.58 nM
Structure (SMILES): c1cnc(Oc2ccc3c(c2)CCN(C2CCC2)CC3)cn1

bioavailability [18]: 55%
half-life [19]: 1.7 h
Tmax [20]: 1.3 h
EC50 (Rattus norvegicus [21]): 15 nM
Cmax [22]: 145 nM
half-life [23]: 1.7 h
Cmax [24]: 383 nM
Vd [25]: 3.2 L/kg
clearance [26]: 28 mL/min/kg
bioavailability [27]: 33%
half-life [28]: 1.8 h
Tmax [29]: 0.7 h
Kp [30]: 1.83
Cmax [31]: 120 nM
Cmax [32]: 393 nM
half-life [33]: 1.7 h
Vd [34]: 2.8 L/kg
clearance [35]: 22 mL/min/kg
bioavailability [36]: 51%
Tmax [37]: 1 h
half-life [38]: 2.1 h
Cmax [39]: 348 nM
Kp [40]: 1.83
half-life [41]: 1.2 h
Cmax [42]: 671 nM
Vd [43]: 3.1 L/kg
clearance [44]: 39 mL/min/kg
CLH (Liver microsome [4]): 0.6 mL/min/g
IC50 [5]: > 10000 nM
solubility [6]: > 10000 µg/mL
Ki (Histamine H4 receptor): > 3160 nM
Ki (Histamine H1 receptor): 2510 nM
Ki (Histamine H2 receptor): > 3160 nM
Ki (Histamine H3 receptor [7]): 0.148 nM
Ki (Histamine H3 receptor [45]): 0.204 nM
CLH (Liver microsome [8]): 1.6 mL/min/g
Ki (Histamine H3 receptor [46]): 0.12 nM
Kp [14]: 1
concentration (Blood): 410 nM
Ki (Histamine H3 receptor [3]): 0.363 nM
Ki (Histamine H3 receptor [1]): 0.1 nM
Structure (SMILES): O=C1CCCN1c1ccc(Oc2ccc3c(c2)CCN(C2CCC2)CC3)nc1 [GSK239512]
Activity (Rattus norvegicus [15]): Active
Activity (Rattus norvegicus [16]): Active
Activity (Rattus norvegicus [17]): Dose-dependent effect
inhibition at 10 µM (hERG (KCNH2)): < 10%
ED50 (Rattus norvegicus [9]): 0.04 mg/kg
Activity (Rattus norvegicus [12]): 95%
ED50 (Rattus norvegicus [13]): 0.08 mg/kg

Kp [14]: 3.4
concentration (Blood): 570 nM
Ki (Histamine H3 receptor [3]): 3.98 nM
Ki (Histamine H3 receptor [1]): 0.501 nM
Structure (SMILES): CNC(=O)c1ccc(Oc2ccc3c(c2)CCN(C2CCC2)CC3)cn1
ED50 (Rattus norvegicus [9]): 0.25 mg/kg
Activity (Rattus norvegicus [12]): 82%
ED50 (Rattus norvegicus [13]): 0.43 mg/kg

CLH (Liver microsome [8]): < 3 mL/min/g
Ki (Histamine H3 receptor [3]): 2 nM
Ki (Histamine H3 receptor [1]): 0.501 nM
Structure (SMILES): NC(=O)c1ccc(Oc2ccc3c(c2)CCN(C2CCC2)CC3)nc1
Activity (Rattus norvegicus [12]): 81%

CLH (Liver microsome [8]): < 3 mL/min/g
concentration (Blood): 270 nM
Kp at 1 h [11]: 1
Ki (Histamine H3 receptor [3]): 10 nM
Ki (Histamine H3 receptor [1]): 0.631 nM
Structure (SMILES): CCN(C)C(=O)c1ccc(Oc2ccc3c(c2)CCN(C2CCC2)CC3)nc1
Activity (Rattus norvegicus [10]): 94%
Activity (Rattus norvegicus [12]): 56%

Ki (Histamine H3 receptor [1]): 0.501 nM
Structure (SMILES): CNC(=O)c1ccc(Oc2ccc3c(c2)CCN(C2CCCC2)CC3)nc1
Activity (Rattus norvegicus [12]): 61%
